Source: PubChem BioAssay (NCI)
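Abbreviation: GI50, concentration required for 50% inhibition of growth. TGI: total growth inhibition.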

Assays:
Test in all cases: growth of human tumour cells (NCI), 384-well format
[1] = test system: 786-0 renal
[2] = test system: A498 renal
[3] = test system: A549 NSCLC
[4] = test system: ACHN renal
[5] = test system: BT-549 breast
[6] = test system: CAKI-1 renal
[7] = test system: COLO 205 colon
[8] = test system: DU-145 prostate
[9] = test system: EKVX NSCLC
[10] = test system: HCT-116 colon
[11] = test system: HCT-15 colon
[12] = test system: HL-60(TB) leukemia
[13] = test system: HOP-62 NSCLC
[14] = test system: HOP-92 NSCLC
[15] = test system: HS 578T breast
[16] = test system: HT29 colon
[17] = test system: IGROV1 ovarian
[18] = test system: K-562 leukemia
[19] = test system: KM12 colon
[20] = test system: M14 melanoma
[21] = test system: MALME-3M melanoma
[22] = test system: MCF7 breast
[23] = test system: MDA-MB-231 breast
[24] = test system: MDA-MB-435 melanoma
[25] = test system: MDA-MB-468 breast
[26] = test system: NCI-H226 lung
[27] = test system: NCI-H23 lung
[28] = test system: NCI-H322M lung
[29] = test system: NCI-H460 NSCLC
[30] = test system: NCI-H522 lung
[31] = test system: OVCAR-3 ovarian
[32] = test system: OVCAR-5 ovarian
[33] = test system: OVCAR-8 ovarian
[34] = test system: PC-3 prostate
[35] = test system: RXF 393 renal
[36] = test system: SF-268 CNS
[37] = test system: SF-295 CNS
[38] = test system: SF-539 CNS
[39] = test system: SK-MEL-2 melanoma
[40] = test system: SK-MEL-28 melanoma
[41] = test system: SK-MEL-5 melanoma
[42] = test system: SK-OV-3 ovarian
[43] = test system: SN12C renal
[44] = test system: SNB-19 CNS
[45] = test system: SNB-75 CNS
[46] = test system: SR leukemia
[47] = test system: SW-620 colon
[48] = test system: T-47D breast
[49] = test system: TK-10 renal
[50] = test system: U251 glioblastoma
[51] = test system: UACC-257 melanoma
[52] = test system: UACC-62 melanoma
[53] = test system: UO-31 renal

**Q.** How did the GI50 [1] turn out when `Cc1ncnc2c1ccn2[C@@H]1C[C@H](Oc2cc(C(F)F)c(F)c3c2CNCC3)[C@@H](O)[C@H]1O` was run?
**A.** 23.6 µM

**Q.** What about the TGI [1] of the same compound?
**A.** > 100 µM

**Q.** What about the GI50 [2] of the same compound?
**A.** 19.3 µM

**Q.** What about the TGI [2] of the same compound?
**A.** > 100 µM

**Q.** What about the GI50 [3] of the same compound?
**A.** 57.8 µM

**Q.** And the TGI [3]?
**A.** > 100 µM

**Q.** And the GI50 [4]?
**A.** 39.6 µM

**Q.** And the TGI [4]?
**A.** > 100 µM

**Q.** What about the GI50 [5] of the same compound?
**A.** 24.7 µM

**Q.** What about the TGI [5] of the same compound?
**A.** > 100 µM

**Q.** What about the GI50 [6] of the same compound?
**A.** 19.1 µM

**Q.** What about the TGI [6] of the same compound?
**A.** > 100 µM

**Q.** And the GI50 [7]?
**A.** 46.5 µM

**Q.** What about the TGI [7] of the same compound?
**A.** > 100 µM

**Q.** What about the GI50 [8] of the same compound?
**A.** 82.9 µM

**Q.** And the TGI [8]?
**A.** > 100 µM

**Q.** And the GI50 [9]?
**A.** 12.8 µM

**Q.** And the TGI [9]?
**A.** 96 µM

**Q.** And the GI50 [10]?
**A.** 15 µM

**Q.** What about the TGI [10] of the same compound?
**A.** 63.3 µM

**Q.** What about the GI50 [11] of the same compound?
**A.** 30.5 µM

**Q.** And the TGI [11]?
**A.** > 100 µM

**Q.** What about the GI50 [12] of the same compound?
**A.** 17 µM

**Q.** And the TGI [12]?
**A.** 30.8 µM

**Q.** And the GI50 [13]?
**A.** 28.2 µM

**Q.** And the TGI [13]?
**A.** > 100 µM

**Q.** And the GI50 [14]?
**A.** 28.1 µM

**Q.** And the TGI [14]?
**A.** > 100 µM

**Q.** And the GI50 [15]?
**A.** 19.3 µM

**Q.** And the TGI [15]?
**A.** > 100 µM

**Q.** What about the GI50 [16] of the same compound?
**A.** 14 µM

**Q.** And the TGI [16]?
**A.** > 100 µM

**Q.** And the GI50 [17]?
**A.** 57.1 µM

**Q.** What about the TGI [17] of the same compound?
**A.** > 100 µM

**Q.** And the GI50 [18]?
**A.** 11.1 µM

**Q.** And the TGI [18]?
**A.** 23.8 µM

**Q.** And the GI50 [19]?
**A.** 0.0943 µM

**Q.** And the TGI [19]?
**A.** > 100 µM

**Q.** What about the GI50 [20] of the same compound?
**A.** 18.4 µM

**Q.** What about the TGI [20] of the same compound?
**A.** 38.4 µM

**Q.** What about the GI50 [21] of the same compound?
**A.** 15.5 µM

**Q.** What about the TGI [21] of the same compound?
**A.** 31.3 µM

**Q.** And the GI50 [22]?
**A.** 6.49 µM

**Q.** What about the TGI [22] of the same compound?
**A.** > 100 µM

**Q.** What about the GI50 [23] of the same compound?
**A.** 39.2 µM

**Q.** And the TGI [23]?
**A.** > 100 µM

**Q.** And the GI50 [24]?
**A.** 38.4 µM

**Q.** And the TGI [24]?
**A.** > 100 µM

**Q.** And the GI50 [25]?
**A.** 6.74 µM

**Q.** What about the TGI [25] of the same compound?
**A.** 35.2 µM

**Q.** What about the GI50 [26] of the same compound?
**A.** 25.7 µM

**Q.** What about the TGI [26] of the same compound?
**A.** > 100 µM

**Q.** And the GI50 [27]?
**A.** 12.9 µM

**Q.** And the TGI [27]?
**A.** 52.1 µM

**Q.** And the GI50 [28]?
**A.** 24.2 µM

**Q.** And the TGI [28]?
**A.** > 100 µM

**Q.** And the GI50 [29]?
**A.** 0.221 µM

**Q.** What about the TGI [29] of the same compound?
**A.** > 100 µM

**Q.** What about the GI50 [30] of the same compound?
**A.** 33 µM

**Q.** What about the TGI [30] of the same compound?
**A.** > 100 µM

**Q.** And the GI50 [31]?
**A.** 17.7 µM

**Q.** And the TGI [31]?
**A.** > 100 µM

**Q.** And the GI50 [32]?
**A.** > 100 µM

**Q.** What about the TGI [32] of the same compound?
**A.** > 100 µM

**Q.** What about the GI50 [33] of the same compound?
**A.** 87.5 µM

**Q.** What about the TGI [33] of the same compound?
**A.** > 100 µM

**Q.** What about the GI50 [34] of the same compound?
**A.** 19.8 µM

**Q.** And the TGI [34]?
**A.** > 100 µM

**Q.** What about the GI50 [35] of the same compound?
**A.** 3.75 µM

**Q.** What about the TGI [35] of the same compound?
**A.** 24.9 µM

**Q.** What about the GI50 [36] of the same compound?
**A.** 29 µM

**Q.** What about the TGI [36] of the same compound?
**A.** > 100 µM

**Q.** What about the GI50 [37] of the same compound?
**A.** 18.9 µM

**Q.** What about the TGI [37] of the same compound?
**A.** 59.8 µM

**Q.** What about the GI50 [38] of the same compound?
**A.** 36.2 µM

**Q.** And the TGI [38]?
**A.** > 100 µM

**Q.** And the GI50 [39]?
**A.** 22.1 µM

**Q.** What about the TGI [39] of the same compound?
**A.** 50.1 µM

**Q.** And the GI50 [40]?
**A.** 17.2 µM

**Q.** And the TGI [40]?
**A.** 42.3 µM

**Q.** What about the GI50 [41] of the same compound?
**A.** 5.57 µM

**Q.** What about the TGI [41] of the same compound?
**A.** 20.6 µM

**Q.** And the GI50 [42]?
**A.** 41.9 µM

**Q.** And the TGI [42]?
**A.** > 100 µM

**Q.** What about the GI50 [43] of the same compound?
**A.** 49.9 µM

**Q.** And the TGI [43]?
**A.** > 100 µM

**Q.** And the GI50 [44]?
**A.** > 100 µM

**Q.** And the TGI [44]?
**A.** > 100 µM

**Q.** What about the GI50 [45] of the same compound?
**A.** 20.8 µM

**Q.** What about the TGI [45] of the same compound?
**A.** 88.6 µM

**Q.** What about the TGI [46] of the same compound?
**A.** 12.2 µM

**Q.** What about the GI50 [47] of the same compound?
**A.** 33.3 µM

**Q.** And the TGI [47]?
**A.** > 100 µM

**Q.** What about the GI50 [48] of the same compound?
**A.** 1.92 µM

**Q.** And the TGI [48]?
**A.** 37.6 µM

**Q.** What about the GI50 [49] of the same compound?
**A.** 25.5 µM

**Q.** What about the TGI [49] of the same compound?
**A.** > 100 µM

**Q.** And the GI50 [50]?
**A.** 31.6 µM

**Q.** And the TGI [50]?
**A.** > 100 µM

**Q.** And the GI50 [51]?
**A.** 13.5 µM

**Q.** What about the TGI [51] of the same compound?
**A.** 27.6 µM

**Q.** What about the GI50 [52] of the same compound?
**A.** 12.5 µM

**Q.** What about the TGI [52] of the same compound?
**A.** 53.3 µM

**Q.** And the GI50 [53]?
**A.** 26.4 µM

**Q.** What about the TGI [53] of the same compound?
**A.** > 100 µM
